Experimental data as given in patent US20160129044A1, “USE OF MESOTHELIAL CELLS IN TISSUE BIOENGINEERING AND ARTIFICIAL TISSUES” (FUNDACION PÚBLICA ANDALUZA PROGRESO Y SALUD, priority 2013, published 2016).

Tested on: adipose tissue mesothelial cells (ATMCs)
Assay: Epithelial-to-mesenchymal transition (EMT) of cultured adipose tissue mesothelial cells: morphology, α-SMA/F-actin immunofluorescence, Western blot
Assay type: cell-based, mouse
Conditions: hydrocortisone 1 μg/ml; ATMCs cultured 3 days; basal media or 20 ng/ml EGF
Description: A total number of 3.5×10^5 ATMCs was seeded in each well of a 6 wells culture dishes (140685, Nunclon™ Δ Surface) into 1.5 ml of a culture media that we termed MRPM (Mesothelial Retaining Phenotype Media). […] Dev Dyn 236: 2973-2979) which are components of the fetal bovine serum (FBS). […] Concentration in viable ATMCs was assessed with a Neubaeur haemocytometer by using the trypan blue exclusion test and was adjusted to a final concentration of 1.6×10^6 cells/ml. […] The mesothelial phenotype of ATMCs cultured for 48 hours in MRPM into hydrophilic p-Dish as well as mesothelialized HALC cultures was analyzed with immunofluorescence. […] Fluorescence images were captured with an inverted fluorescence microscope Olympus IX71 as described above. Quantification of α-SMA immunofluorescence expression was performed with the use of the Meta Imaging Software MetaMorph Offline version 7.5.1.0 (MDS Analytical technologies, USA). For each immunofluorescence image, were calculated the average values of specific Hoechst 33342 and Alexa 488 nm fluorescence emitted by the cells. Specific fluorescence was obtained after eliminating the average values of background fluorescence emitted by 3 areas lacking cells. Hoechst 33342 and Alexa 488 nm fluorescence were further divided between each other to obtain a relative index of marker expression (arbitrary units). […]

Structure (SMILES): C[C@]12CCC(=O)C=C1CC[C@@H]1[C@@H]2[C@@H](O)C[C@@]2(C)[C@H]1CC[C@]2(O)C(=O)CO [Hydrocortisone, hydrocortisone]
- Effect on Serum- and EGF-induced EMT of ATMCs (α-SMA expression, immunofluorescence and Western blot): inhibits Serum- and EGF-induced EMT
